Results published in patent publication US20220153746A1, “NITROGEN OXIDE-DONATING PDE-5 AND/OR PDE-6 INHIBITOR COMPOUNDS, AND USES THEREOF” (ILDONG PHARMACEUTICAL CO., LTD., priority 2020, published 2022).
Read-outs that look alike come from different tables or passages of the source.

Test: TD Phase (Groups 1 and 3): plasma and ocular tissue concentrations and pharmacokinetics of Compound 18 and its metabolite Compound 4 after once daily ocular instillation of Compound 18 nanosuspension for 7 days
Assay type: in vivo, New Zealand white rabbits
Settings: for Cmax / Tmax / half-life / AUC(0-t): topical or ocular; for AUC(0-t): read-out: AUC0-8; for Metabolite/parent AUC ratio (Compound 4 vs Compound 18): TD phase
Description: This example illustrates the procedures and results for the levels of Compound 18 and its metabolite Compound 4 in plasma and ocular tissues of normotensive rabbits following ocular instillation of Compound 18 once daily for 7 consecutive days.
Twenty five (25) male New Zealand white rabbits were divided into 5 groups of varying amounts of animals per group.
The Test article, Compound 18 was formulated as a 2% nanosuspension in DI water containing 0.2% PS80 (polyoxyethylenesorbitan, monooleate (Tween 80)) and 0.4% HPMC (hydroxypropylmethylcellulose) at pH 6.77. Referred to herein as “Compound 18 nanosuspension.”
The study consisted of three groups (Groups 1-3) of 19 male rabbits (NZW) that underwent once daily morning ocular installation (1 eyedrop) for 7 consecutive days (Day 0-6). Groups 4-5 each consisted of 3 male rabbits (NZW) that were not dosed.
Blood samples (1 mL) were collected from the jugular vein at the intervals set out below for each group. The samples were then inverted several times following collection and held on wet ice until centrifuged. Samples were centrifuged within 60 minutes of collection under refrigeration (set at 5° C. for 10 minutes at 2000 g.
Group 1 (Pilot Study, terminal blood collection): blood was collected from 3 animals at 1 hour post day 7 dose of Compound 18 nanosuspension.
Group 3 (TD Phase, terminal blood collection): blood was collected from 3 animals at 0.5 hour, 3 animals at 2 hours, 3 animals at 4 hours, and 3 animals at 8 hours post day 7 dose of Compound 18 nanosuspension.
(§1) Group 1 (Pilot Study): 3 animals were terminated at 1 hour post Day 7 dose of Compound 18 nanosuspension. Following blood collection and termination, ocular tissues (aqueous humor, vitreous humor, cornea, iris/ciliary body, lens, optic nerve, retina, sclera/choroid, and trabecular meshwork) were collected from each animal and the tissue weights were recorded. Note: sclera and choroid were collected together. Iris and ciliary body were collected together.
as §1, with “3 (TD Phase):” for “1 (Pilot Study):”, “0.5 hour, 3 animals at 2 hours, 3 animals at 4 hours, and 3 animals at 8 hours” for “1 hour”
Plasma and tissue samples from treated animals (Groups 1-3) were analyzed for Compound 18 and its metabolite Compound 4 concentrations by LC-MS/MS.
Pharmacokinetic analysis was conducted using WinNonlin Version 6.2.1 (Pharsight, Mountain View, Calif.), operating as a validated software system. Noncompartmental analysis was conducted using the extravascular administration model for ocular instillation dosing.
The peak plasma and ocular tissue concentration, time to achieve peak plasma and ocular tissue concentration, half-life, and area under the plasma and ocular tissue concentration-time curve (Cmax, Tmax, T1/2, and AUC) were calculated from the TD phase combined with the pilot study mean animal plasma and ocular tissue concentrations for each sampling time/dose group for Compound 18 and its metabolite Compound 4.
BA Assay: Quantitation Range 0.05 to 100 ng/mL for Compound 18, 0.15 to 100 ng/mL for Compound 4.
3. Pipet 50 μL of each type of pre-spiked ocular tissue samples (AH/VH) for QC samples, 50 μL of incurred aqueous humor, and vitreous humor sample (if applicable) into a 96 well plate.
Ocular Tissues Homogenate Preparation: Incurred rabbit ocular tissues were weighed in Genogrinder tubes (plastic tubes with small beads) at the time of removal from the animal and stored frozen (<−70° C.) until analysis. The rabbit incurred ocular tissues were thawed on wet ice. […]

[1] = male, New Zealand white, rabbit, 0.8 mg/kg/day, optic nerve, Day 7, from mean concentrations
[2] = male, New Zealand white, rabbit, 0.8 mg/kg/day, plasma, Day 7, from mean concentrations
[3] = male, New Zealand white, rabbit, 0.8 mg/kg/day, retina, Day 7, from mean concentrations
[4] = male, New Zealand white, rabbit, 0.8 mg/kg/day, sclera/choroid, Day 7, from mean concentrations
[5] = male, New Zealand white, rabbit, 0.8 mg/kg/day, trabecular meshwork, Day 7, from mean concentrations
[6] = male, New Zealand white, rabbit, 0.8 mg/kg/day, vitreous humor, Day 7, from mean concentrations
[7] = male, New Zealand white, rabbit, Aqueous Humor, Day 7, Compound 18 0.8 mg/kg ocular instillation once daily, Groups 1 and 3
[8] = male, New Zealand white, rabbit, Cornea, Day 7, Compound 18 0.8 mg/kg ocular instillation once daily, Groups 1 and 3
[9] = male, New Zealand white, rabbit, Iris/Ciliary Body, Day 7, Compound 18 0.8 mg/kg ocular instillation once daily, Groups 1 and 3
[10] = male, New Zealand white, rabbit, Lens, Day 7, Compound 18 0.8 mg/kg ocular instillation once daily, Groups 1 and 3
[11] = male, New Zealand white, rabbit, Optic Nerve, Day 7, Compound 18 0.8 mg/kg ocular instillation once daily, Groups 1 and 3
[12] = male, New Zealand white, rabbit, Plasma, Day 7, Compound 18 0.8 mg/kg ocular instillation once daily, Groups 1 and 3
[13] = male, New Zealand white, rabbit, Retina, Day 7, Compound 18 0.8 mg/kg ocular instillation once daily, Groups 1 and 3
[14] = male, New Zealand white, rabbit, Sclera/Choroid, Day 7, Compound 18 0.8 mg/kg ocular instillation once daily, Groups 1 and 3
[15] = male, New Zealand white, rabbit, Trabecular Meshwork, Day 7, Compound 18 0.8 mg/kg ocular instillation once daily, Groups 1 and 3
[16] = male, New Zealand white, rabbit, Vitreous Humor, Day 7, Compound 18 0.8 mg/kg ocular instillation once daily, Groups 1 and 3

CCCc1nn(C)c2c(=O)[nH]c(-c3cc(S(=O)(=O)N4CC(CCCO)C4)ccc3OCC)nc12 [Compound 4, 5-(2-ethoxy-5-((3-(3-hydroxypropyl)azetidin-1-yl)sulfonyl)phenyl)-1-methyl-3-propyl-1,6-dihydro-7H-pyrazolo[4,3-d]pyrimidin-7-one]
Cmax [1]: 40.2 ng/g | Tmax [1]: 1 h | half-life [1]: 2.93 h | Cmax [2]: 1.02 ng/mL | Tmax [2]: 0.5 h | half-life [2]: 0.958 h | AUC(0-t) [2]: 1.57 ng·h/mL | Cmax [3]: 50.9 ng/g | Tmax [3]: 2 h | half-life [3]: 1.93 h | Cmax [4]: 303 ng/g | Tmax [4]: 4 h | half-life [4]: 1.74 h | Cmax [5]: 204 ng/g | Tmax [5]: 1 h | half-life [5]: 2.2 h | Cmax [6]: 2.32 ng/mL | Tmax [6]: 1 h | half-life [6]: 1.72 h | AUC(0-t) [6]: 9.9 ng·h/mL | Cmax [7]: 124 ng/mL | Tmax [7]: 1 h | half-life [7]: 1.95 h | AUC(0-t) [7]: 314 ng·h/mL | Cmax [8]: 3600 ng/g | Tmax [8]: 1 h | half-life [8]: 2.63 h | Cmax [9]: 980 ng/g | Tmax [9]: 1 h | half-life [9]: 2.11 h | Cmax [10]: 18.1 ng/g | Tmax [10]: 1 h | half-life [10]: 2.25 h | Cmax [11]: 40.2 ng/g | Tmax [11]: 1 h | half-life [11]: 2.93 h | Cmax [12]: 1.02 ng/mL | Tmax [12]: 0.5 h | half-life [12]: 0.958 h | AUC(0-t) [12]: 1.57 ng·h/mL | Cmax [13]: 50.9 ng/g | Tmax [13]: 2 h | half-life [13]: 1.93 h | Cmax [14]: 303 ng/g | Tmax [14]: 4 h | half-life [14]: 1.74 h | Cmax [15]: 204 ng/g | Tmax [15]: 1 h | half-life [15]: 2.2 h | Cmax [16]: 2.32 ng/mL | Tmax [16]: 1 h | half-life [16]: 1.72 h | AUC(0-t) [16]: 9.9 ng·h/mL | concentration at 8 h (male, New Zealand white, rabbit, trabecular meshwork, other: ocular instillation, 0.8 mg/kg/day, TD Phase, Group 3, 8 h, Mean, read-out: Final Compound 4 Trabecular Meshwork Conc.): 13.9 ng/g | AUC0-8 (optic nerve, Day 7, from mean concentrations): 159 ng·h/g | Metabolite/parent AUC ratio (Compound 4 vs Compound 18) (optic nerve): 0.133 | AUC0-8 (retina, Day 7, from mean concentrations): 213 ng·h/g | Metabolite/parent AUC ratio (Compound 4 vs Compound 18) (retina): 1.34 | AUC0-8 (sclera/choroid, Day 7, from mean concentrations): 1494 ng·h/g | Metabolite/parent AUC ratio (Compound 4 vs Compound 18) (sclera/choroid): 1.32 | AUC0-8 (trabecular meshwork, Day 7, from mean concentrations): 533 ng·h/g | Metabolite/parent AUC ratio (Compound 4 vs Compound 18) (trabecular meshwork): 18.0
